{"source": "paper PMC7215781", "about": "(International Journal of Molecular Sciences, 2020)", "target": "T1, purified Na,K-ATPase from lamb kidney (α1) (Ovis aries, UniProt P04074)", "T1 construct": "gene ATP1A1; native enzyme purified from lamb kidney (gift of W. Ball); with Sodium/potassium-transporting ATPase subunit beta-1", "test": "coupled pyruvate kinase/lactate dehydrogenase ATPase assay, NADH absorbance at […] nm, Hill fit", "format": "biochemical", "conditions": "inhibition; 3 h incubation in K+-free solution; 5 mM ATP, 100 mM NaCl, 10 mM MgCl2; pH 7.3; 37 °C"}
{"smiles": "C[C@@H]1O[C@@H](O[C@H]2C[C@@H](O)[C@]3(CO)[C@H]4[C@H](O)C[C@]5(C)[C@@H](C6=CC(=O)OC6)CC[C@]5(O)[C@@H]4CC[C@]3(O)C2)[C@H](O)[C@H](O)[C@H]1O", "note": "[ouabain]", "values": [{"measurement": "K0.5", "value": "157 ± 7", "unit": "nM"}]}
